Where two headings read alike, the source gives them in different places.
Tests used:
[1] = in vitro
Procedure: Then, 100 µL of cell suspension and 100 μL of each concentration of the compounds were placed in each well of 96-well tissue culture microplate, and plates were incubated again at 37 °C, 5% CO2. […] The reaction was stopped with 100 μL/well of DMSO and absorbance was recorded at 570 nm (Varioskan Flash, Thermo Scientific, Waltham, MA, USA). […] Each measurement was done in triplicate in two independent experiments.
To calculate the cytotoxicity, the percentages of mortality for each concentration tested were calculated according to Eq. 1:
1 %Mortality=100-ODexposedcells/ODnonexposedcellsx100
(§1) Then, these percentages of mortality were used to calculate the median lethal concentrations (LC50) by Probit analysis using Graphpad Prism 8 software. In the case of antiparasitic activity (L. braziliensis, T. cruzi and P. falciparum), the percentage in the reduction of parasites for each concentration tested was quantified using Eq. 2:
(§2) All experiments were performed in triplicate. Both cytotoxicity and antiparasitic activity were classified as high, moderate, or low, according to ranges previously established based on the own hit criteria.

[2] = system: L. braziliensis intracellular amastigotes (HMOM/COL/88/UA301-EGFP); assay: In vitro activity against L. braziliensis amastigotes in U-937 cells (flow cytometry); type: cell-based, Leishmania braziliensis; settings: for Leishmanicidal activity IS (Index of Selectivity = LC50/EC50): LC50 U-937 / EC50 L. braziliensis; for EC50: intracellular amastigotes of L. braziliensis, 72 h, read-out: Leishmanicidal activity EC50 (median effective concentration); for Leishmanicidal activity class: L. braziliensis amastigotes
Procedure: (§3) Compounds were solubilized in DMSO (1 mg/mL, w/v).
One ml was dispensed into each well of a 24-well culture plate. After 72 h, cells were infected with promastigotes of L. braziliensis (HMOM/COL/88/UA301-EGFP) in a proportion of 15:1 (parasites per cell ratio). Plates were incubated at 34 °C, 5% CO2, and 3 h after non-internalized promastigotes were removed by washing twice with phosphate buffer (PBS). Plates were incubated again at 34 °C, 5% CO2, and 24 h later cells were washed with warm PBS and medium replaced. […] After 72 h, cells were removed using trypsin/EDTA solution and washed twice with PBS by centrifuging 10 min at 1100 rpm, 4 °C. […] The percentage of infected cells was calculated using dot plot analysis according to positive events for green fluorescence and then parasite load in these infected cells was calculated by histogram analysis according to the mean fluorescence intensity (MFI). Infected cells were used as control of infection (negative control) and infected cells exposed to Amphotericin B (AMB) were used as control of antileishmanial activity (positive control).
as §1
(§4) 2 %Parasitereduction=100ODorMFIexposedparasites/ODorMFIcontrolparasitesx100
as §2

[3] = system: T. cruzi intracellular amastigotes (Tulahuen strain); assay: In vitro activity for T. cruzi amastigotes in U-937 cells; type: cell-based, Trypanosoma cruzi; settings: for Trypanocidal activity IS (Index of Selectivity = LC50/EC50): LC50 U-937 / EC50 T. cruzi; for EC50: Trypanosoma cruzi, TULAHUEN, U-937, intracellular amastigotes of T. cruzi, 72 h, read-out: Trypanocidal activity EC50 (median effective concentration)
Procedure: as §3
Plates were incubated at 37 °C, 5% CO2. After 72 h of incubation, cells were infected with 5:1 […] of Tulahuen strain (24 h of growing) per cell ratio. Plates were incubated at 37 °C, 5% CO2. After 24 h of incubation 100 μL of each compound concentration were added to each well and plates were incubated again at 37 °C, 5% CO2. After 72 h of incubation 100 μL of chlorophenol red-β-D-galactopyranoside (CPRG) at 100 µM and 0.1%, Nonidet P-40 was added, and after 3 h of incubation, absorbance was read at 570 nm (Varioskan, Thermo). Infected cells exposed to Benznidazole (BZN) were used as a control for trypanocidal activity (positive control) while infected and non-treated cells were used as a control for infection (negative control). Nonspecific absorbance was corrected as described above. Each measurement was done in triplicate in two independent experiments.
as §1, §4, §2

[4] = system: P. falciparum (3D7 strain); assay: In vitro antiplasmodial activity (pLDH); type: cell-based, Plasmodium falciparum; settings: for Antiplasmodial activity IS (Index of Selectivity = LC50/EC50): LC50 U-937 / EC50 P. falciparum; for Antiplasmodial activity class: P. falciparum; for EC50: Plasmodium falciparum, P. falciparum 3D7, total forms, 48 h, read-out: Antiplasmodial activity EC50 (median effective concentration)
Procedure: Unsynchronized P. falciparum (3D7 strain) culture was adjusted to 0.5% parasitemia and 1% hematocrit in RPMI medium enriched with 3% lipid-rich bovine serum albumin-Albumax II. In each well of a 96-well tissue culture plate, 100 µl of parasite suspension and 100 µl of each dilution of the compounds were added. Plates were incubated for 48 h at 37 °C, 90% N2, 5% CO2, 5% O2. After incubation, supernatants were harvested and parasites were subjected to three 20–minute freeze–thaw cycles. In a second flat–bottomed 96-well microtiter plate were dispensed 100 µL of Malstat reagent, pH 9.0, 25 µL of NBT/PES solution, and 15 µL of lysed parasites. Plates were incubated in the dark at 37 °C for 90 min and color development of the pLDH reaction was read at 650 nm (Varioskan, Thermo). […] Nonspecific absorbance was corrected by subtracting optical density (OD) of the blank. […]. Each measurement was done in triplicate in two independent experiments.
as §1, §2

[5] = system: Echinococcus multilocularis protoscoleces; design: method as in PMID 32101761; settings: E. multilocularis protoscoleces, in vitro; cited from earlier work
[6] = system: murine model of alveolar echinococcosis; design: method as in PMID 32101761; settings: listed as menthol-pentanol prodrug; cited from earlier work
[7] = system: Leishmania amazonensis promastigotes; design: method as in earlier work; settings: ref 53 (Silva et al. 2017), read-out: EC50 against Leishmania amazonensis promastigotes; cited from earlier work
[8] = Leishmania braziliensis, U-937, 72 h

Structure (SMILES) | CC50 at 72 h [1] | Leishmanicidal activity IS (Index of Selectivity = LC50/EC50) [2] | EC50 ([2]; Leishmania braziliensis, U-937) | Trypanocidal activity IS (Index of Selectivity = LC50/EC50) [3] | EC50 [3] | EC50 [2, 8] | Antiplasmodial activity IS (Index of Selectivity = LC50/EC50) [4] | Antiplasmodial activity class [4] | EC50 [4] | Leishmanicidal activity class [2] | EC50 [2] | protoscolicidal effect [5] | clinical efficacy [6] | EC50 [7] | Trypanocidal activity class ([3]; T. cruzi amastigotes)
C[C@@H]1[C@H](O)[C@@H](C)/C=C/C=C/C=C/C=C/C=C/C=C/C=C/[C@H](O[C@@H]2O[C@H](C)[C@@H](O)[C@H](N)[C@@H]2O)C[C@@H]2O[C@](O)(C[C@@H](O)C[C@@H](O)[C@H](O)CC[C@@H](O)C[C@@H](O)CC(=O)O[C@H]1C)C[C@H](O)[C@H]2C(=O)O [AMB, Amphotericin B, reference compound] | 53.9 ± 7.4 µM | 134.8 | 0.4 ± 0.1 µM | – | – | – | – | – | – | – | – | – | – | – | –
O=C(Cn1ccnc1[N+](=O)[O-])NCc1ccccc1 [BNZ, Benznidazole, reference compound] | > 768 µM | – | – | 12.8 | 60.1 ± 12.2 µM | – | – | – | – | – | – | – | – | – | –
COC(=O)OC1CC(C)CCC1C(C)C (stereo not drawn) [Compound 1, Metyl(2-Isopropyl-5-methylcyclohexanol)carbonate] | 68.5 ± 6.7 µM | 3.0 | – | 0.6 | 105 ± 34.5 µM | 22.9 ± 2.8 µM | 0.5 | low (low activity (EC50 > 100 μM)) | 127 ± 9.9 µM | – | – | – | – | – | –
CCOC(=O)OC1CC(C)CCC1C(C)C (stereo not drawn) [Compound 2, Etyl(2-Isopropyl-5-methylcyclohexanol)carbonate] | 103 ± 35.8 µM | 3.6 | – | 3.1 | 33.8 ± 4.3 µM | 28.4 ± 0.4 µM | 3.6 | high (high (EC50 < 50 μM)) | 28.4 ± 0.4 µM | – | – | – | – | – | –
CCCOC(=O)OC1CC(C)CCC1C(C)C (stereo not drawn) [Compound 3, Propyl(2-Isopropyl-5-methylcyclohexanol)carbonate] | 57 ± 14.4 µM | 1.8 | – | 1.7 | 33.8 µM | 31.8 ± 4.1 µM | 0.9 | – | 60.7 ± 1.2 µM | – | – | – | – | – | –
CC1CCC(C(C)C)C(OC(=O)OC(C)C)C1 (stereo not drawn) [Compound 4, Isopropyl(2-Isopropyl-5-methylcyclohexanol)carbonate] | 145 ± 74.5 µM | 3.4 | – | 0.1 | 2060 ± 175 µM | 43.2 ± 0.3 µM | 2.4 | – | 60.7 ± 1 µM | – | – | – | – | – | –
CCCCOC(=O)OC1CC(C)CCC1C(C)C (stereo not drawn) [Compound 5, Butyl(2-Isopropyl-5-methylcyclohexanol)carbonate] | 207 ± 38.2 µM | 3.5 | – | 1.7 | 122 ± 21.4 µM | 53.3 µM | 3.7 | – | 56.3 ± 1 µM | moderate (moderate (EC50 > 50 μM < 100 μM)) | 59.3 ± 1.4 µM | – | – | – | –
CCCCCOC(=O)OC1CC(C)CCC1C(C)C (stereo not drawn) [Compound 6, Pentyl(2-Isopropyl-5-methylcyclohexanol)carbonate] | – | – | – | 7.4 | 29.6 ± 1.2 µM | 96.7 ± 0.6 µM | – | – | – | moderate (moderate (EC50 > 50 μM < 100 μM)) | – | greater protoscolicidal effect than menthol | clinical efficacy similar to Albendazole | – | –
CCCCCCOC(=O)OC1CC(C)CCC1C(C)C (stereo not drawn) [Compound 7, Hexyl(2-Isopropyl-5-methylcyclohexanol)carbonate] | 73.3 ± 15.8 µM | 2.6 | – | 1.6 | 46.3 ± 4.9 µM | 28.2 ± 1.1 µM | 0.2 | low (low activity (EC50 > 100 μM)) | 432 ± 239 µM | – | – | – | – | – | –
CCCCCCCOC(=O)OC1CC(C)CCC1C(C)C (stereo not drawn) [Compound 8, Heptyl(2-Isopropyl-5-methylcyclohexanol)carbonate] | 48.4 ± 6.1 µM | – | – | 1.8 | 27.6 ± 4.4 µM | > 23.5 µM | 0.7 | – | 67.4 ± 5.8 µM | – | – | – | – | – | –
CCCCCCCCOC(=O)OC1CC(C)CCC1C(C)C (stereo not drawn) [Compound 9, Octyl(2-Isopropyl-5-methylcyclohexanol)carbonate] | 44.1 ± 3.8 µM | 0.1 | – | 1.7 | 26.7 ± 4.6 µM | 463 ± 206 µM | 0.7 | – | 62.4 ± 6.5 µM | – | – | – | – | – | –
COc1cccc2c1C(=O)c1c(O)c3c(c(O)c1C2=O)C[C@@](O)(C(=O)CO)C[C@@H]3O[C@H]1C[C@H](N)[C@H](O)[C@H](C)O1 [DOXO, Doxorubicin, reference compound] | 1.7 ± 0.2 µM | – | – | – | – | – | – | – | – | – | – | – | – | – | –
CC1CCC(C(C)C)C(O)C1 (stereo not drawn) [Menthol, 2-Isopropyl-5-methylcyclohexanol] | 266 ± 188 µM | – | – | 1.5 | 173 ± 28.9 µM | > 128 µM | 0.7 | – | 358 ± 51 µM | – | – | – | – | 1270 µM | low (low activity (EC50 > 100 μM))

From publication PMC9190099, “Menthol carbonates as potent antiparasitic agents: synthesis and in vitro studies along with computer-aided approaches” (BMC Complementary Medicine and Therapies, 2022)
